Measurements published in patent US20110039763A1, “TARGETED ANTIMICROBIAL MOIETIES” (C3 JIAN, INC., priority 2009, published 2011).
“Also recorded” adds a separate entry of the source. Bridge positions count the residues as written; N and C are the ends. Square brackets hold non-standard residues; d marks the D form. Peptide text beside a SMILES is read from it. I, II: the chains in the order shown. Aoc = NCCCCCCCC(=O)O

Assays:
S. mutans [1] = assay: Post-antibiotic effect assay, S. mutans; type: cell-based, Streptococcus mutans; settings: S. mutans monoculture; peptide 10 min, then fresh medium; FIG. 17A
Procedure: The activity and selectivity of MH-STAMPs after a 10 min incubation was determined by growth retardation experiments against targeted and untargeted bacteria in monocultures, as described previously (Id.). Cells from overnight cultures were diluted to ˜5×10^6 cfu/mL in MH (or TH with 1% sucrose for S. mutans), normalized by OD600 0.05-0.1 and seeded to 96-well plates. Cultures were then grown under the appropriate conditions for 2 h (3 h for S. mutans) prior to the addition of peptides for 10 min. Plates were then centrifuged at 3000×g for 5 min, the supernatants discarded, fresh medium returned (MH or TH without sucrose for S. mutans), and incubation resumed. Bacterial growth after treatment was then monitored over time by OD600.
MH-STAMP antimicrobial kinetics was ascertained utilizing a variation of the classical post-antibiotic effect assay, which measures the ability of an agent to affect an organism's growth after a short exposure period. Monocultures of MH-STAMP-targeted and untargeted organisms were exposed to M8(KH)-20, M8(BL)-20, BL(KH)-20, or unmodified BD2.20, then allowed to recover. […] Furthermore, replacement of the targeting region with a non-binding peptide abolishes specific activity.

[2] = system: Mixed planktonic populations of P. aeruginosa, E. coli, S. epidermidis, and S. mutans; assay: Microbial population shift assay; type: cell-based; settings: mixed culture, 10 μM peptide, 24 h, detection limit 200 cfu/mL, FIG. 18
Procedure: Peptide (10 μM) or mock-treatment (1×PBS) was then added and samples were incubated at 37° C. for 24 h under anaerobic conditions (80% N2, 15% CO2, 5% H2). […] Plates were then incubated 37° C. under aerobic conditions (TH plates were incubated anaerobically) and colonies counted after 24 h to determine survivors. […] Gram stains and direct microscopic observation (from select isolated colonies) were undertaken to confirm species identity (data not shown). The detection limit of the assay was 200 cfu/mL.
We hypothesized that potential MH-STAMP dual-functionality could affect a particular set of bacteria within a mixed population, thereby promoting the outgrowth of non-targeted organisms and “shifting” the constituent makeup. To examine this possibility, defined mixed populations of planktonic cells were treated continuously and the make-up of the community examined after 24 h.

T. rubrum = assay: MIC test / antimicrobial activity, T. rubrum; type: cell-based, Trichophyton rubrum
Procedure: (§1) The active AMPs, STAMPs and the like can be identified and/or validated using an in vitro screening assay.
(§2) It will be appreciated that other assays as are well known in the art or that will become apparent to those having skill in the art upon review of this disclosure may also be used to identify active AMPs. Such assays include, for example, the assay described in Lehrer et al. (1988) J. Immunol.
(§3) Peptides were evaluated for basic antimicrobial activity by broth microdilution, as described previously (Eckert et al. (2006) Antimicrob Agents Chemother., 50: 3651-3657; Eckert et al. (2006) Antimicrob Agents Chemother., 50: 1480-1488). Briefly, ˜1×10^5 cfu/mL bacteria were diluted in TH (S. mutans), or Mueller-Hinton (MH) broth (all other organisms) and distributed to 96-well plates. Serially-diluted (2-fold) peptides were then added and the plates incubated at 37° C. for 18-24 h. […] All experiments were conducted 10 times.

B. subtilis = assay: MIC test / antimicrobial activity, B. subtilis; type: cell-based, Bacillus subtilis; settings: B. subtilis
Procedure: as §1, §2, §3

S. epidermidis = assay: MIC test (broth microdilution) / antimicrobial activity, S. epidermidis; type: cell-based, Staphylococcus epidermidis; settings: S. epidermidis
Procedure: as §1, §2, §3

microorganisms [3] = assay: Peptide activities: targeting/binding, antimicrobial, growth or phenotype altering (Tables 7, 8); type: cell-based; settings: peptides having multiple activities
microorganisms [4] = assay: Targeting peptide binding to target microorganisms (Tables 3, 10, 12); settings: microorganism(s) the targeting peptide binds; binding in aqueous buffers varied with peptide solubility, preferably 1x PBS
microorganisms [5] = assay: Morphology, biofilm and growth disrupting peptides (Table 5); type: cell-based; parameters: key: A: Peptide aggregates; B: Less hyphal formation; Clumps; Diffuse clumps and small polyps; F: Diffuse growth; H: Thin; I: Growth inhibition; Microcolony formation; Rippled; Small polyps; Thick; W: Halo formation on top, microlonies on bottom
Excerpt: In certain embodiments peptides that induce alterations in phenotype or other biological activities can also be used as antimicrobial effector moieties.

E. coli = assay: MIC test (broth microdilution) / antimicrobial activity, E. coli; type: cell-based, Escherichia coli
Procedure: as §1, §2, §3

S. pneumoniae = assay: MIC test / antimicrobial activity, S. pneumoniae; type: cell-based, Streptococcus pneumoniae
Procedure: as §1, §2, §3

S. mutans [6] = assay: MIC test (broth microdilution) / antimicrobial activity, S. mutans; type: cell-based, Streptococcus mutans
Procedure: as §1, §2, §3

P. aeruginosa = assay: MIC test (broth microdilution) / antimicrobial activity, P. aeruginosa; type: cell-based, Pseudomonas aeruginosa; settings: P. aeruginosa
Procedure: as §1, §2, §3

MRSA = assay: MIC test / antimicrobial activity, MRSA; type: cell-based, Methicillin-resistant Staphylococcus aureus
Procedure: as §1, §2, §3

S. mutans [7] = assay: Anti-S. mutans STAMP activity in vitro, incl. formulations; type: cell-based, Streptococcus mutans
Excerpt: During the course of evaluating STAMPs, antimicrobial peptides (AMPs), and binding peptides for desired activity, it was discovered that certain formulations can attenuate or promote peptide activity, as compared to activity levels in a default buffer system (1×PBS). In some cases, 1×PBS may provide the best level of activity. Below are a number of formulations that alter, or may alter, peptide or STAMP activity. For complex buffer systems, assume the base solvent is water unless otherwise stated.
All show potent selective activity against their bacterial targets in vitro, including against biofilm forms. When tested, STAMPs have little cytotoxicity against cell lines in vitro.
It was a surprising discovery that certain anti-S. mutans STAMPs required a salt in the formulation (e.g., PBS) for optimum activity. […] Suitable PBS formulations ranged from 0.5×PBS to about 2.5×PBS with an activity optimum at about 1×PBS. Similar results are believed to obtain for other anti-S. mutans STAMPS as well as a number of other STAMPs. In certain embodiments STAMP stability in solution was improved by inclusion of fluoride in mouthrinse.

## CC[C@H](C)[C@H](NC(=O)[C@H](Cc1ccccc1)NC(=O)CCCCCCCNC(=O)[C@H](CCCCNC(=O)CNC(=O)CNC(=O)CNC(=O)[C@H](C)NC(=O)[C@H](CCC(=O)O)NC(=O)[C@H](CC(N)=O)NC(=O)[C@H](C)NC(=O)[C@H](C)NC(=O)[C@@H](N)CC(=O)O)NC(=O)CNC(=O)CNC(=O)CNC(=O)[C@H](CCCNC(=N)N)NC(=O)[C@H](CC(N)=O)NC(=O)[C@H](CC(C)C)NC(=O)[C@H](Cc1ccccc1)NC(=O)[C@H](CCCNC(=N)N)NC(=O)[C@H](Cc1ccccc1)NC(=O)[C@H](Cc1ccccc1)NC(=O)[C@@H](NC(C)=O)[C@@H](C)O)C(=O)N[C@@H](CCCNC(=N)N)C(=O)N[C@@H](CCCCN)C(=O)N[C@@H](Cc1ccccc1)C(=O)N[C@@H](CC(C)C)C(=O)N[C@@H](CCCCN)C(=O)N[C@@H](CCCCN)C(=O)N[C@@H](Cc1c[nH]c2ccccc12)C(=O)N[C@@H](CC(C)C)C(=O)N[C@@H](CC(C)C)C(N)=O [M8(BL)-20] (I: Ac-TFFRFLNRGGGK[Aoc]FIRKFLKKWLL-NH2 / II: H-DAANEAGGG; amide I:12-II:C)
S. mutans [1]
  growth after treatment (culture recovery, OD600): effectively retarded
[2]; input ~0.5×10^4 cfu/mL
  surviving P. aeruginosa: not affected or affected to a lesser extent
[2]; input ~2×10^4 cfu/mL
  surviving E. coli: not affected or affected to a lesser extent
  surviving S. epidermidis: not affected or affected to a lesser extent
[2]; input ~6×10^4 cfu/mL
  surviving S. mutans: greatly reduced compared to input cfu/mL

## MIRIRSPTKKKLNRNSISDWKSNTSGRFFY [PF-283]
T. rubrum
  Organism MIC (μM): T. rubrum, 50 μM
B. subtilis
  Organism MIC (μM): B. subtilis, 50 μM
S. epidermidis
  Organism MIC (μM): S. epidermidis, 50 μM
Microorganisms [3]
  Activities: G B M
Microorganisms [4]
  Target(s): B. subtilis; also recorded: B. fragilis; also recorded: C. difficile
Microorganisms [5]; B. subtilis
  Organism, effect: B. subtilis: B. subtilis (H)
Microorganisms [5]; S. epidermidis
  Organism, effect: S. epidermidis: S. epidermidis (H)

## TKKIELKRFVDAFVKKSYENYILERELKKLIKAINEELPTK [PF-600]
E. coli
  Organism MIC (μM): E. coli, 50 μM
S. pneumoniae
  Organism MIC (μM): S. pneumoniae, 50 μM
Microorganisms [3]
  Activities: G B M
Microorganisms [5]; E. coli
  Organism, effect: E. coli (H)
Microorganisms [5]; M. luteus
  Organism, effect: M. luteus (C)
Microorganisms [5]; MRSA
  Organism, effect: MRSA (M)
Microorganisms [5]; S. epidermidis
  Organism, effect: S. epidermidis (C)
Microorganisms [5]; S. mutans
  Organism, effect: S. mutans (S)
Microorganisms [5]; S. pneumoniae
  Organism, effect: S. pneumoniae (R)

## FIRKFLQKLHL [K-16]
S. mutans [6]
  Organism MIC (μM): S. mutans, 8 μM
P. aeruginosa
  Organism MIC (μM): P. aeruginosa, 12.5 μM
MRSA
  Organism MIC (μM): MRSA, 25 μM

## KFQGEFTNIGQSYIVSASHMSTSLNTGK [PF-583]
MRSA
  Organism MIC (μM): MRSA, 50 μM
S. epidermidis
  Organism MIC (μM): S. epidermidis, 50 μM
Microorganisms [3]
  Activities: G B M
Microorganisms [5]; MRSA
  Organism, effect: MRSA (I)
Microorganisms [5]; S. epidermidis
  Organism, effect: S. epidermidis (I)
Microorganisms [5]; S. mutans
  Organism, effect: S. mutans (F)
Microorganisms [5]; S. pneumoniae
  Organism, effect: S. pneumoniae (D)

## TFFRLFNRSFTQALGKGGGKNLRIIRKGIHIIKKY* [C16G2]
S. mutans [7]; phosphate buffered saline (PBS) formulation, 0.5×PBS to about 2.5×PBS, optimum at about 1×PBS
  STAMP activity in formulation: active
S. mutans [7]; water-based salt-free buffers and nanoemulsions
  STAMP activity in formulation: substantially inactive
